Consider 14 compounds from US12331026B2 (NiKang Therapeutics, Inc., priority 2022, dated 2025).

The target in this assay is T1, CDK2 (Homo sapiens, UniProt P24941).
T1 construct: endogenous in cells; host or cells: OVCAR3 cells
In words: Phospho-RB measurement in OVCAR3 cells (HTRF phospho-RB S807/811). The assay is classed as cell-based. The note with it: phosphorylation of RB protein at S807/811, HTRF, 24 h compound treatment, 0.3 to 10,000 nM, read-out: pRb (uM). As for the experimental part:
The ability of compounds of Formula (I) to inhibit CDK2 was determined in OVCAR3 cells. Phosphorylation of RB protein at S807/811 were measured using HTRF phospho-RB cellular kits (Cat #64RBS807PEG) from Cisbio.
On Day 1, OVCAR3 cells were seeded into 96-well tissue-culture treated plates at 20,000 cells/well in 200 μL and incubated overnight at 37° C. in CO2 atmosphere. On Day 2, the cells were treated with test compounds at concentrations from 0.3 to 10,000 nM using HP D300 digital dispenser. Twenty-four hours after compound treatment, cell culture media was removed by flicking the plate and tapping the plate against clean paper towel. Immediately 30 μL 1× lysis buffer was supplemented from the kit and the plate was incubated at room temperature on shaker for 30 min. After homogenization by pipetting up and down, 8 μL cell lysate from 96-well cell culture plate was transferred to 384-well small volume white detection plate. 2 μL premixed detection solution was added and the plate was covered with sealer. To prepare the detection solution, d2 conjugated-phospho-RB antibody and Eu-cryptate conjugated phosphor-RB antibody were diluted into detection buffer following manufacturer's instruction.
Detection plates were incubated for 4 h at room temperature and read on ClarioStar (BMG Labtech) in TR-FRET mode ([…]). The TR-FRET ratio (665 nM1/620 nM) was plotted against the compound concentration and normalized to DMSO controls. Half maximal inhibition concentration (IC50) values are calculated with a four-parameter logistic fit using GraphPad Prism (version 8; La Jolla, CA).
On to `COc1cccc(C(F)(F)F)c1S(=O)(=O)Nc1cccc(-c2nc(N3C4CCC3CN(C)C4)sc2-c2ccnc(NC3CC4(C3)CS(=O)(=O)C4)n2)c1F` [Example 74, N-(3-(5-(2-((2,2-dioxido-2-thiaspiro[3.3]heptan-6-yl)amino)-pyrimidin-4-yl)-2-(3-methyl-3,8-diazabicyclo[3.2.1]octan-8-yl)thiazol-4-yl)-2-fluorophenyl)-2-methoxy-6-(trifluoromethyl)benzenesulfonamide], for which the IC50 is 0.63 µM.

With `O=S1(=O)C[C@@H]2[C@H](C1)[C@@H]2Nc1nccc(-c2sc(N3C4CCC3CN(C3CC(F)(F)C3)C4)nc2-c2cccc(NS(=O)(=O)c3c(F)cccc3F)c2F)n1` [Example 106, N-(3-(2-(3-(3,3-difluorocyclobutyl)-3,8-diazabicyclo[3.2.1]octan-8-yl)-5-(2-(((1R,5S,6s)-3,3-dioxido-3-thiabicyclo[3.1.0]hexan-6-yl)amino)pyrimidin-4-yl)thiazol-4-yl)-2-fluorophenyl)-2,6-difluorobenzenesulfonamide], the IC50 amounted to 0.68 µM.

As to `O=S1(=O)CC2(CC(Nc3nccc(-c4sc(N5C6CCC5CN(Cc5ccccc5)C6)nc4-c4cccc(NS(=O)(=O)c5c(F)cccc5F)c4F)n3)C2)C1` [Example 40, N-(3-(2-(3-benzyl-3,8-diazabicyclo[3.2.1]octan-8-yl)-5-(2-((2,2-dioxido-2-thiaspiro[3.3]heptan-6-yl)amino)pyrimidin-4-yl)thiazol-4-yl)-2-fluorophenyl)-2,6-difluorobenzenesulfonamide], the IC50 was 1.7 µM.

As for `O=S1(=O)CC2CCC(C1)N2c1nc(-c2cccc(NS(=O)(=O)c3c(F)cccc3F)c2F)c(-c2ccnc(NC3CC4(C3)CS(=O)(=O)C4)n2)s1` [Example 48, N-(3-(5-(2-((2,2-dioxido-2-thiaspiro[3.3]heptan-6-yl)amino)-pyrimidin-4-yl)-2-(3,3-dioxido-3-thia-8-azabicyclo[3.2.1]octan-8-yl)thiazol-4-yl)-2-fluorophenyl)-2,6-difluorobenzenesulfonamide], the IC50 is 7.13 µM.

Consider `C[C@H]1CN(C)C[C@H](C)N1c1nc(-c2cccc(NS(=O)(=O)c3c(F)cccc3C(F)(F)F)c2F)c(-c2ccnc(NC3CC4(C3)CS(=O)(=O)C4)n2)s1` [Example 70, N-(3-(5-(2-((2,2-dioxido-2-thiaspiro[3.3]heptan-6-yl)amino)-pyrimidin-4-yl)-2-((2S,6S)-2,4,6-trimethylpiperazin-1-yl)thiazol-4-yl)-2-fluorophenyl)-2-fluoro-6-(trifluoromethyl)benzenesulfonamide], for which the IC50 turned out to be 0.03 µM.

Regarding `C[C@H]1COC[C@H](C)N1c1nc(-c2cccc(NS(=O)(=O)c3c(F)cccc3C(F)(F)F)c2F)c(-c2ccnc(N[C@H]3[C@@H]4CS(=O)(=O)C[C@@H]43)n2)s1` [Example 114, N-(3-(2-((3S,5S)-3,5-dimethylmorpholino)-5-(2-(((1R,5S,6r)-3,3-dioxido-3-thiabicyclo[3.1.0]hexan-6-yl)amino)pyrimidin-4-yl)thiazol-4-yl)-2-fluorophenyl)-2-fluoro-6-(trifluoromethyl)benzenesulfonamide], the IC50 amounted to 0.3 µM.

Take `CN1CCC(C)(c2nc(-c3cccc(NS(=O)(=O)c4c(F)cccc4F)c3F)c(-c3ccnc(NC4CC5(C4)CS(=O)(=O)C5)n3)s2)CC1` [Example 15, N-(3-(2-(1,4-dimethylpiperidin-4-yl)-5-(2-((2,2-dioxido-2-thiaspiro[3.3]heptan-6-yl)amino)pyrimidin-4-yl)thiazol-4-yl)-2-fluorophenyl)-2,6-difluorobenzenesulfonamide]: the IC50 is 3.2 µM.

As for `C[C@H]1CN(C)C[C@H](C)N1c1nc(-c2cccc(NS(=O)(=O)c3c(F)cccc3C(F)(F)F)c2F)c(-c2ccnc(N[C@H]3[C@@H]4CS(=O)(=O)C[C@@H]43)n2)s1` [Example 124, N-(3-(5-(2-(((1R,5S,6r)-3,3-dioxido-3-thiabicyclo[3.1.0]hexan-6-yl)amino)pyrimidin-4-yl)-2-((2S,6S)-2,4,6-trimethylpiperazin-1-yl)thiazol-4-yl)-2-fluorophenyl)-2-fluoro-6-(trifluoromethyl)benzenesulfonamide], the IC50 came out at 0.04 µM.

As to `CS(=O)(=O)C1CCC(Nc2nccc(-c3sc(C45CC(Cl)(C4)C5)nc3-c3cccc(NS(=O)(=O)c4c(F)cccc4C(F)(F)F)c3F)n2)CC1` (centres unmarked) [Example 8, N-(3-(2-(3-chlorobicyclo[1.1.1]pentan-1-yl)-5-(2-(((1s,4s)-4-(methylsulfonyl)cyclohexyl)amino)pyrimidin-4-yl)thiazol-4-yl)-2-fluorophenyl)-2-fluoro-6-(trifluoromethyl)benzenesulfonamide], the IC50 is 0.24 µM.

Take `O=S1(=O)CC2(CC(Nc3nccc(-c4sc(N5C6CCC5COC6)nc4-c4cccc(NS(=O)(=O)c5c(F)cccc5F)c4F)n3)C2)C1` [Example 2, N-(3-(2-(3-oxa-8-azabicyclo[3.2.1]octan-8-yl)-5-(2-((2,2-dioxido-2-thiaspiro[3.3]heptan-6-yl)amino)pyrimidin-4-yl)thiazol-4-yl)-2-fluorophenyl)-2,6-difluorobenzenesulfonamide]: the IC50 was found to be 0.15 µM.

Regarding `O=S1(=O)CC2(CC(Nc3nccc(-c4sc(C56CC(C5)C6)nc4-c4cccc(NS(=O)(=O)c5c(F)cccc5C(F)(F)F)c4F)n3)C2)C1` [Example 26, N-(3-(2-(bicyclo[1.1.1]pentan-1-yl)-5-(2-((2,2-dioxido-2-thiaspiro[3.3]heptan-6-yl)amino)pyrimidin-4-yl)thiazol-4-yl)-2-fluorophenyl)-2-fluoro-6-(trifluoromethyl)benzenesulfonamide], the IC50 worked out at 0.016 µM.

Regarding `O=S1(=O)CC2(CC(Nc3nccc(-c4sc(C56CC(C5)C6)nc4-c4cccc(NS(=O)(=O)c5c(F)cccc5C5CC5)c4F)n3)C2)C1` [Example 41, N-(3-(2-(bicyclo[1.1.1]pentan-1-yl)-5-(2-((2,2-dioxido-2-thiaspiro[3.3]heptan-6-yl)amino)pyrimidin-4-yl)thiazol-4-yl)-2-fluorophenyl)-2-cyclopropyl-6-fluorobenzenesulfonamide], the IC50 worked out at 0.36 µM.

Regarding `O=S1(=O)C[C@@H]2[C@H](C1)[C@H]2Nc1nccc(-c2sc(C3(C(F)F)CC3)nc2-c2cccc(NS(=O)(=O)c3c(F)cccc3C(F)(F)F)c2F)n1` [Example 128, N-(3-(2-(1-(difluoromethyl)cyclopropyl)-5-(2-(((1R,5S,6r)-3,3-dioxido-3-thiabicyclo[3.1.0]hexan-6-yl)amino)pyrimidin-4-yl)thiazol-4-yl)-2-fluorophenyl)-2-fluoro-6-(trifluoromethyl)-benzenesulfonamide], the IC50 was found to be 0.05 µM.

Turning to `CN1CC2CCC(C1)N2c1nc(-c2cccc(NS(=O)(=O)c3c(F)cccc3C(F)(F)F)c2F)c(-c2ccnc(NC3[C@H]4CS(=O)(=O)C[C@@H]34)n2)s1` (stereo partly drawn) [Example 111, N-(3-(5-(2-(((1R,5S,6s)-3,3-dioxido-3-thiabicyclo[3.1.0]hexan-6-yl)amino)pyrimidin-4-yl)-2-(3-methyl-3,8-diazabicyclo[3.2.1]octan-8-yl)thiazol-4-yl)-2-fluorophenyl)-2-fluoro-6-(trifluoromethyl)benzenesulfonamide], the IC50 amounted to 0.08 µM.
